Measured values as given in ChEMBL document CHEMBL5543147, “Discovery and Characterization of a Novel Cereblon-Recruiting PRC1 Bridged PROTAC Degrader” (J Med Chem, 2024).
Calls of active or inactive are those of the source. No cut-off for these calls is given here.

Assays:
[1] = target: T1, Protein cereblon/Polycomb protein EED (Homo sapiens, UniProt O75530+Q96SW2); assay: PROTAC activity at CRBN/EED in human K562 cells assessed as degradation of EED protein expression incubated for 24 hrs by Western blotting analysis; type: cell-based
[2] = target: Protein cereblon/Histone-lysine N-methyltransferase EZH2 (Homo sapiens) (UniProt Q15910+Q96SW2); assay: PROTAC activity at CRBN/EZH2 in human K562 cells assessed as degradation of EZH2 protein expression at 0.1 to 10 uM incubated for 24 hrs by Western blotting analysis; type: cell-based; conditions: dose 0.1-10 µM
K562 [3] = assay: Induction of PRC1 degradation in human K562 cells assessed as reduction of H2AK119ub chromatin mark at 0.1 to 10 uM incubated for 24 hrs by Western blotting analysis; type: cell-based; conditions: dose 0.1-10 µM
[4] = target: T2, Protein cereblon/Polycomb complex protein BMI-1 (Homo sapiens, UniProt Q96SW2+P35226); assay: PROTAC activity at […] in human K562 cells assessed as degradation of BMI1 protein expression at 10 uM measured after 4 hrs by Western blotting analysis; type: cell-based
[5] = target: T2, Protein cereblon/Polycomb complex protein BMI-1; assay: PROTAC activity at […] in human K562 cells assessed as degradation of BMI1 protein expression at 10 uM measured after 12 hrs by Western blotting analysis relative to control; type: cell-based
[6] = target: T1, Protein cereblon/Polycomb protein EED; assay: PROTAC activity at CRBN/EED in human K562 cells assessed as degradation of EED protein expression at 10 uM measured after 12 hrs by Western blotting analysis relative to control; type: cell-based
Target sequence in this assay (O75530 2-441 limits assumed): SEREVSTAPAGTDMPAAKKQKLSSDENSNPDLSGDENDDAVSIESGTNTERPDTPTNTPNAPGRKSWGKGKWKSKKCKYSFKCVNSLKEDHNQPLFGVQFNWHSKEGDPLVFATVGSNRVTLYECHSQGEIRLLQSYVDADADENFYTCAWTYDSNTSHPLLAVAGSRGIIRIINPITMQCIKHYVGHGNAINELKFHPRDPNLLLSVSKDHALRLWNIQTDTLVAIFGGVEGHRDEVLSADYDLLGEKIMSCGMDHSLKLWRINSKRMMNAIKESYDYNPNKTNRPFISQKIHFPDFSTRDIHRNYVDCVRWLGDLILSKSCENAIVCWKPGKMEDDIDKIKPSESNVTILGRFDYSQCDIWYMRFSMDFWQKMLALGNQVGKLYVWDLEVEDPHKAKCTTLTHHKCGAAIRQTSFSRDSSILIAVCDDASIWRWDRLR
Target sequence in this assay (Q96SW2 whole entry partner): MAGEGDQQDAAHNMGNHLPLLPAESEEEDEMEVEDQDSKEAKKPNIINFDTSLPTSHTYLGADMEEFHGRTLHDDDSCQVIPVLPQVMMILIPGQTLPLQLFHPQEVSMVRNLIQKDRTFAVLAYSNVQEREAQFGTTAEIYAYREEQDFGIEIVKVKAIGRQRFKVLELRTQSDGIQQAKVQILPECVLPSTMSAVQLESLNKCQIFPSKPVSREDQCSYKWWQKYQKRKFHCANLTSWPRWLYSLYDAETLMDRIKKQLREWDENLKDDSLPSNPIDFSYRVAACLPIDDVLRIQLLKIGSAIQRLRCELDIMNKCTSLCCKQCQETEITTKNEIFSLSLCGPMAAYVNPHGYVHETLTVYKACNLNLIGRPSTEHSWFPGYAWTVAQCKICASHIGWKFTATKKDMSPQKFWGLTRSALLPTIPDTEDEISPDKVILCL

[7] = target: Protein cereblon/RING1 and YY1-binding protein (Homo sapiens) (UniProt Q96SW2+Q8N488); assay: PROTAC activity at CRBN/RYBP in human K562 cells assessed as degradation of RYBP protein expression at 1 to 10 uM incubated for 24 hrs by Western blotting analysis; type: cell-based; conditions: dose 1-10 µM
[8] = target: Protein cereblon/YY1-associated factor 2 (Homo sapiens) (UniProt Q96SW2+Q8IY57); assay: PROTAC activity at CRBN/YAF in human K562 cells assessed as degradation of YAF protein expression at 1 to 10 uM incubated for 24 hrs by Western blotting analysis; type: cell-based; conditions: dose 1-10 µM
[9] = target: Protein cereblon/Chromobox protein homolog 8 (Homo sapiens) (UniProt Q9HC52+Q96SW2); assay: PROTAC activity at CRBN/CBX8 in human K562 cells assessed as degradation of CBX8 protein expression at 1 to 10 uM incubated for 24 hrs by Western blotting analysis; type: cell-based; conditions: dose 1-10 µM
[10] = target: Protein cereblon/E3 ubiquitin-protein ligase RING1 (Homo sapiens) (UniProt Q96SW2+Q06587); assay: PROTAC activity at CRBN/RING1A in human K562 cells assessed as degradation of RING1A protein expression at 1 to 10 uM incubated for 24 hrs by Western blotting analysis; type: cell-based; conditions: dose 1-10 µM
[11] = target: T2, Protein cereblon/Polycomb complex protein BMI-1; assay: PROTAC activity at […] in human K562 cells assessed as degradation of BMI1 protein expression at 10 uM incubated for 20 hrs in presence of pomalidomide by Western blotting analysis; type: cell-based
[12] = target: T3, Protein cereblon/E3 ubiquitin-protein ligase RING2 (Homo sapiens, UniProt Q96SW2+Q99496); assay: PROTAC activity at CRBN/RING1B in human K562 cells assessed as degradation of RING1B protein expression at 10 uM incubated for 20 hrs in presence of pomalidomide by Western blotting analysis; type: cell-based
[13] = target: Protein cereblon/Zinc finger protein Aiolos (Homo sapiens) (UniProt Q96SW2+Q9UKT9); assay: PROTAC activity at CRBN/IKZF3 in human K562 cells assessed as degradation of IKZF3 protein at 0.1 to 10 uM incubated for 4 hrs by Western blotting analysis; type: cell-based; conditions: dose 0.1-10 µM
[14] = target: T2, Protein cereblon/Polycomb complex protein BMI-1; assay: PROTAC activity at […] in human K562 cells assessed as degradation of BMI1 mRNA expression at 10 uM incubated for 20 hrs by RT-qPCR analysis; type: cell-based
[15] = target: T1, Protein cereblon/Polycomb protein EED; assay: PROTAC activity at CRBN/EED in human K562 cells assessed as degradation of EED mRNA expression at 10 uM incubated for 20 hrs by RT-qPCR analysis; type: cell-based
Target sequence in this assay (O75530 2-441 limits assumed): as the sequence (O75530 2-441 limits assumed) above
Target sequence in this assay (Q96SW2 whole entry partner): as the sequence (Q96SW2 whole entry partner) above

K562 [16] = assay: Antiproliferative activity against human K562 cells assessed as cell growth inhibition incubated for 7 days by WST-8 assay; type: functional; conditions: K562, 168 h, time 7 day
[17] = target: von Hippel-Lindau disease tumor suppressor/Polycomb complex protein BMI-1 (Homo sapiens) (UniProt P40337+P35226); assay: PROTAC activity at […] in human 786-0 cells with defective VHL assessed as degradation of BMI1 protein expression at 10 uM incubated for 24 hrs by Western blotting analysis; type: cell-based
786-0 = assay: Induction of PRC1 degradation in human 786-0 cells with defective VHL assessed as reduction of H2AK119ub chromatin mark at 10 uM incubated for 24 hrs by Western blotting analysis; type: cell-based
[18] = target: Protein cereblon/Polycomb protein SUZ12 (Homo sapiens) (UniProt Q15022+Q96SW2); assay: PROTAC activity at CRBN/SUZ12 in human PC-3M cells assessed as degradation of SUZ12 protein expression at 0.2 to 5 uM incubated for 24 hrs by Western blotting analysis; type: cell-based; conditions: dose 0.2-5 µM
[19] = target: T2, Protein cereblon/Polycomb complex protein BMI-1; assay: PROTAC activity at CRBN/BIM1 in human PC-3M cells assessed as degradation of BMI1 protein expression at 1 uM incubated for 24 hrs by Western blotting analysis; type: cell-based
[20] = target: T3, Protein cereblon/E3 ubiquitin-protein ligase RING2; assay: PROTAC activity at CRBN/RING1B in human PC-3M cells assessed as degradation of RING1B protein expression at 1 uM incubated for 24 hrs by Western blotting analysis; type: cell-based
PC-3M [21] = assay: Induction of PRC2 degradation in human PC-3M cells assessed as reduction of H3K27me3 chromatin mark at 1 uM incubated for 24 hrs by Western blotting analysis; type: cell-based
PC-3M [22] = assay: Induction of PRC2 degradation in human PC-3M cells assessed as reduction of H3K27me3 chromatin mark at 5 uM incubated for 24 hrs by Western blotting analysis; type: cell-based
PC-3M [23] = assay: Induction of PRC1 degradation in human PC-3M cells assessed as reduction of H2AK119ub chromatin mark at 5 uM incubated for 24 hrs by Western blotting analysis; type: cell-based
PC-3M [24] = assay: Inhibition of colony formation in human PC-3M cells at 1 to 10 uM incubated for 14 days by crystal violet staining based assay; type: functional, cell-based; conditions: dose 1-10 µM, time 14.0 day
MDA-MB-468 [25] = assay: Antiproliferative activity against human MDA-MB-468 cells assessed as inhibition of cell growth at 1 to 10 uM incubated for 5 days by WST-8 assay; type: functional, cell-based; conditions: dose 1-10 µM, time 5.0 day
MDA-MB-468 [26] = assay: Inhibition of colony formation in human MDA-MB-468 cells at 1 to 10 uM incubated for 14 days by crystal violet staining based assay; type: functional, cell-based; conditions: dose 1-10 µM, time 14.0 day
[27] = Drug concentration in Swiss albino mouse plasma at 50 mg/kg,ip administration measured after 2 hrs by LC-MS/MS analysis; type: ADME, organism-based
[28] = Drug concentration in Swiss albino mouse plasma at 50 mg/kg,ip administration measured after 8 hrs by LC-MS/MS analysis; type: ADME, organism-based

T2 sequence (P35226 whole entry, looked up): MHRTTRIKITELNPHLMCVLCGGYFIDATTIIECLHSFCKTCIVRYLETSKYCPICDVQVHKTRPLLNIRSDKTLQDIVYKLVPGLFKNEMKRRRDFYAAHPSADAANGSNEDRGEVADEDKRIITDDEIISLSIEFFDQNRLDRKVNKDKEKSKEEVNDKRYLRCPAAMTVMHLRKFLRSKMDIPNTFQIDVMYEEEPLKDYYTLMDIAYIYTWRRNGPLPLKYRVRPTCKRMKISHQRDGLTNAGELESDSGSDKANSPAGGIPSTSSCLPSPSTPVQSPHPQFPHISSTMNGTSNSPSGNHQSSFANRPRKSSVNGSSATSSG
T2 sequence (Q96SW2 whole entry, looked up): as the sequence (Q96SW2 whole entry partner) above
T3 sequence (Q96SW2 whole entry): as the sequence (Q96SW2 whole entry partner) above
T3 sequence (Q99496 2-336 partner limits assumed): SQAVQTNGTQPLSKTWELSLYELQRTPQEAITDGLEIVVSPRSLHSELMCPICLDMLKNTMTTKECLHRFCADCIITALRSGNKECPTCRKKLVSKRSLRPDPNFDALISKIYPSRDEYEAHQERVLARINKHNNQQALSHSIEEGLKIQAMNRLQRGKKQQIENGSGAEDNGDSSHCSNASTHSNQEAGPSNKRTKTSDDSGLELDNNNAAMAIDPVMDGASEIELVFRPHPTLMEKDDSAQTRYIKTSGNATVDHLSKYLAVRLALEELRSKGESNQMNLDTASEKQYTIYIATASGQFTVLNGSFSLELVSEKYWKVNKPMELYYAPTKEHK
Protein cereblon/Polycomb protein SUZ12 (Homo sapiens), sequence (Q15022 whole entry, looked up): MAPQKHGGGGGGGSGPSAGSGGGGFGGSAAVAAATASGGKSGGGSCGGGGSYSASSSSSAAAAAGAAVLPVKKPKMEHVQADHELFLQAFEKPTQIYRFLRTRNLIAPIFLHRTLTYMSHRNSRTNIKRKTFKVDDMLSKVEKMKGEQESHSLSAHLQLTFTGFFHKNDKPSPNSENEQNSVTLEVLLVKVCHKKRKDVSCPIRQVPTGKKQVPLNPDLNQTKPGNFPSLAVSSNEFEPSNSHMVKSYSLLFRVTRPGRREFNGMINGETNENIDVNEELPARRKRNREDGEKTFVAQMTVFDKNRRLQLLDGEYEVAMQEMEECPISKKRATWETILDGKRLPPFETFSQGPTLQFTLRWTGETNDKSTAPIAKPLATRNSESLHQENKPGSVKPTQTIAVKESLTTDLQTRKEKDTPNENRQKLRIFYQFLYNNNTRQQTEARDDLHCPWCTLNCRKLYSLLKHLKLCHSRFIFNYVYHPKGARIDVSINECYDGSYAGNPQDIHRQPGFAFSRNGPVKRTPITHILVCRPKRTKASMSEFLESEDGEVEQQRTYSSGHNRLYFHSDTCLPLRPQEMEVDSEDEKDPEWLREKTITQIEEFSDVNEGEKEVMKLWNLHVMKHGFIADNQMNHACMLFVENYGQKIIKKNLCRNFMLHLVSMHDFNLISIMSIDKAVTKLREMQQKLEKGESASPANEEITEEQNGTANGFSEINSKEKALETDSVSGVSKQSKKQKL
Protein cereblon/Polycomb protein SUZ12 (Homo sapiens), sequence (Q96SW2 whole entry, looked up): as the sequence (Q96SW2 whole entry partner) above
von Hippel-Lindau disease tumor suppressor/Polycomb complex protein BMI-1 (Homo sapiens), sequence (P35226 whole entry, looked up): as the sequence (P35226 whole entry, looked up) above
von Hippel-Lindau disease tumor suppressor/Polycomb complex protein BMI-1 (Homo sapiens), sequence (P40337 whole entry, looked up): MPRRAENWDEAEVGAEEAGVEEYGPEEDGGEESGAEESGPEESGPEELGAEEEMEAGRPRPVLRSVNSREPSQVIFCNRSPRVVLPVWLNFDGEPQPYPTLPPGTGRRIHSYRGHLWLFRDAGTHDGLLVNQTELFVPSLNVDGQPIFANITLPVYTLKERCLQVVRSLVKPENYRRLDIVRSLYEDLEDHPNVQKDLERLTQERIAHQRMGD
Protein cereblon/YY1-associated factor 2 (Homo sapiens), sequence (Q8IY57 whole entry, looked up): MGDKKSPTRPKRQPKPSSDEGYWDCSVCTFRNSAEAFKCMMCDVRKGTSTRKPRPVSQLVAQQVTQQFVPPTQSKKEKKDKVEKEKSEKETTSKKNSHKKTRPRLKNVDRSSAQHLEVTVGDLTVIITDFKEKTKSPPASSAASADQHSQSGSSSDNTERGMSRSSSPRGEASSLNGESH
Protein cereblon/YY1-associated factor 2 (Homo sapiens), sequence (Q96SW2 whole entry, looked up): as the sequence (Q96SW2 whole entry partner) above

- DC50 [1]: 3.3 µM
- Activity [2]: Active
- Activity [4]: Active
- Activity [5]: 100%
- Activity [6]: 50%
- Activity [7]: inactive
- Activity [8]: inactive
- Activity [9]: inactive
- Activity [10]: Active
- Activity [11]: inactive
- Activity [12]: inactive
- Activity [13]: inactive
- Activity [14]: inactive
- Activity [15]: inactive
- GI50 (K562 [16]): 3.7 µM
- Activity [17]: Active
- Activity [18]: inactive
- Activity [19]: Active
- Activity [20]: Active
- concentration at 2 h [27]: > 1000 nM
- concentration at 8 h [28]: > 500 nM
Structure (SMILES): O=C(CNc1cccc2c1C(=O)N(C1CCC(=O)NC1=O)C2=O)NCCCCN1CCN(c2ccc(-c3cnc(NCc4ccco4)n4cnnc34)cc2)CC1 (centres undefined)
- Activity (K562 [3]): Active
- Activity (786-0): Active
- Activity (PC-3M [21]): inactive
- Activity (PC-3M [22]): inactive
- Activity (PC-3M [23]): Active
- inhibition (PC-3M [24]): Active
- Activity (MDA-MB-468 [25]): Active
- inhibition (MDA-MB-468 [26]): Active
